Laboratory results from US20130274338A1, “PHARMACEUTICAL COMPOSITIONS COMPRISING DGLA, 15-OHEPA, AND/OR 15-HETRE AND METHODS OF REDUCING SEBUM PRODUCTION USING SAME” (priority 2012, published 2013).

Tested on: P. acnes
Test: Agar dilution method, growth of P. acnes and MIC, combinations with a fatty acid spike
Type: cell-based, Propionibacterium acnes
Set-up: key to Growth Index Plate 1 / Growth Index Plate 2 / Growth Index Plate 3 / Growth Index Avg: +++: confluent growth (comparable to control); ++: less confluent growth; +: marked reduction in growth to multiple tiny, single colonies; −: no growth present
Method: Several compounds including fatty acids such as DGLA, 15-OHEPA, and 15-HETrE were tested to determine their capacity to inhibit the growth of P. acnes. In an exemplary method, an agar dilution method was used to determine the minimum inhibitory concentration (MIC) of each tested compound. Briefly, the agar dilution method involved preparing a series of concentrations of each compound (e.g., nicotinamide, benzoyl peroxide, adapalene, metronidazole, DGLA, 15-OHEPA, and 15-HETrE) in a Reinforced Clostridial Agar (RCA) media that facilitates growth of P. acnes under anaerobic conditions. An inoculum of P. acnes was prepared by incubation of P. acnes for approximately seven days at 35-37° C. to achieve a ≧1.0 OD600 inoculum of P. acnes in RCM broth. A portion of this inoculum was then added to the surface of each plate as a 10 μL spot and incubated at 35-37° C. for 72 hours or more. Growth of P. acnes was then observed and compared to control plates in which no compound has been added, and positive inhibition plates prepared with erythromycin. […] The growth of P. acnes in the presence of nicotinamide, benzoyl peroxide, adapalene, metronidazole, DGLA, 15-OHEPA, and 15-HETrE was determined with varying concentrations of the compound (see, Table 2). Next, the MIC was determined as the concentration at which a marked reduction (+) occurs in the appearance of growth on the test plate (as per Clinical and Laboratory Standards Institute M11-A7).
The compounds tested singly in Example 1 were tested in combination with one another to determine the capacity of the combination to inhibit the growth of P. acnes. In an exemplary method, the MIC was determined for each of the combination as described in Example 1. Briefly, test combinations included DGLA with nicotinamide, benzoyl peroxide, adapalene, or metronidazole; 15-HETrE with nicotinamide, benzoyl peroxide, adapalene, or metronidazole; and 15-OHEPA with nicotinamide, benzoyl peroxide, adapalene, or metronidazole. The tables below show the growth of P. acnes in the presence of 0.4 or 1.0 mg/mL DGLA with varying concentrations of nicotinamide, benzoyl peroxide, adapalene, or metronidazole (Table 3); the growth of P. acnes in the presence of 0.01 or 0.05 mg/mL 15-HETrE with varying concentrations of nicotinamide, benzoyl peroxide, adapalene, or metronidazole (Table 5); and the growth of P. acnes in the presence of 0.5 or 0.1 mg/mL 15-OHEPA with varying concentrations of nicotinamide, benzoyl peroxide, adapalene, or metronidazole (Table 7).

[1] = compound at 0.2 mg/mL + 0.01 mg/mL 15-HETrE
[2] = compound at 0.2 mg/mL + 0.05 mg/mL 15-HETrE
[3] = compound at 0.2 mg/mL + 0.05 mg/mL 15-OHEPA
[4] = compound at 0.2 mg/mL + 0.1 mg/mL 15-OHEPA
[5] = compound at 0.2 mg/mL + 0.4 mg/mL dGLA
[6] = compound at 0.2 mg/mL + 1.0 mg/mL dGLA
[7] = compound at 0.4 mg/mL + 0.01 mg/mL 15-HETrE
[8] = compound at 0.4 mg/mL + 0.05 mg/mL 15-HETrE
[9] = compound at 0.4 mg/mL + 0.05 mg/mL 15-OHEPA
[10] = compound at 0.4 mg/mL + 0.1 mg/mL 15-OHEPA
[11] = compound at 0.4 mg/mL + 0.4 mg/mL dGLA
[12] = compound at 0.4 mg/mL + 1.0 mg/mL dGLA
[13] = compound at 0.6 mg/mL + 0.01 mg/mL 15-HETrE
[14] = compound at 0.6 mg/mL + 0.05 mg/mL 15-HETrE
[15] = compound at 0.6 mg/mL + 0.05 mg/mL 15-OHEPA
[16] = compound at 0.6 mg/mL + 0.1 mg/mL 15-OHEPA
[17] = compound at 0.6 mg/mL + 0.4 mg/mL dGLA
[18] = compound at 0.6 mg/mL + 1.0 mg/mL dGLA
[19] = compound at 0.7 mg/mL + 0.01 mg/mL 15-HETrE
[20] = compound at 0.7 mg/mL + 0.05 mg/mL 15-HETrE
[21] = compound at 0.7 mg/mL + 0.05 mg/mL 15-OHEPA
[22] = compound at 0.7 mg/mL + 0.1 mg/mL 15-OHEPA
[23] = compound at 0.8 mg/mL + 0.01 mg/mL 15-HETrE
[24] = compound at 0.8 mg/mL + 0.05 mg/mL 15-HETrE
[25] = compound at 0.8 mg/mL + 0.05 mg/mL 15-OHEPA
[26] = compound at 0.8 mg/mL + 0.1 mg/mL 15-OHEPA
[27] = compound at 0.8 mg/mL + 0.4 mg/mL dGLA
[28] = compound at 0.8 mg/mL + 1.0 mg/mL dGLA
[29] = compound at 1.0 mg/mL + 0.4 mg/mL dGLA
[30] = compound at 1.0 mg/mL + 1.0 mg/mL dGLA

## COc1ccc(-c2ccc3cc(C(=O)O)ccc3c2)cc1C12CC3CC(CC(C3)C1)C2 [Adapalene, 6-[3-(1-adamantyl)-4-methoxyphenyl]-2-naphthoic acid]
[1]
  Growth Index Avg: +++
  Growth Index Plate 1: +++
  Growth Index Plate 2: +++
  Growth Index Plate 3: +++
[2]
  Growth Index Avg: −
  Growth Index Plate 1: −
  Growth Index Plate 2: −
  Growth Index Plate 3: −
[3]
  Growth Index Avg: +++
  Growth Index Plate 1: +++
  Growth Index Plate 2: +++
  Growth Index Plate 3: +++
[4]
  Growth Index Avg: −
  Growth Index Plate 1: −
  Growth Index Plate 2: −
  Growth Index Plate 3: −
[5]
  Growth Index Avg: +++
  Growth Index Plate 1: +++
  Growth Index Plate 2: +++
  Growth Index Plate 3: +++
[6]
  Growth Index Avg: +++
  Growth Index Plate 1: +++
  Growth Index Plate 2: +++
  Growth Index Plate 3: +++
[7]
  Growth Index Avg: +++
  Growth Index Plate 1: +++
  Growth Index Plate 2: +++
  Growth Index Plate 3: +++
[8]
  Growth Index Avg: −
  Growth Index Plate 1: −
  Growth Index Plate 2: −
  Growth Index Plate 3: −
[9]
  Growth Index Avg: +++
  Growth Index Plate 1: +++
  Growth Index Plate 2: +++
  Growth Index Plate 3: +++
[10]
  Growth Index Avg: −
  Growth Index Plate 1: −
  Growth Index Plate 2: −
  Growth Index Plate 3: −
[11]
  Growth Index Avg: +++
  Growth Index Plate 1: +++
  Growth Index Plate 2: +++
  Growth Index Plate 3: +++
[12]
  Growth Index Avg: +++
  Growth Index Plate 1: +++
  Growth Index Plate 2: +++
  Growth Index Plate 3: +++
[13]
  Growth Index Avg: ++
  Growth Index Plate 1: ++
  Growth Index Plate 2: ++
  Growth Index Plate 3: ++
[14]
  Growth Index Avg: −
  Growth Index Plate 1: −
  Growth Index Plate 2: −
  Growth Index Plate 3: −
[15]
  Growth Index Avg: +++
  Growth Index Plate 1: ++
  Growth Index Plate 2: +++
  Growth Index Plate 3: +++
[16]
  Growth Index Avg: −
  Growth Index Plate 1: −
  Growth Index Plate 2: −
  Growth Index Plate 3: −
[17]
  Growth Index Avg: +++
  Growth Index Plate 1: +++
  Growth Index Plate 2: +++
  Growth Index Plate 3: +++
[18]
  Growth Index Avg: +++
  Growth Index Plate 1: +++
  Growth Index Plate 2: +++
  Growth Index Plate 3: +++
[19]
  Growth Index Avg: +
  Growth Index Plate 1: +
  Growth Index Plate 2: +
  Growth Index Plate 3: +
[20]
  Growth Index Avg: −
  Growth Index Plate 1: −
  Growth Index Plate 2: −
  Growth Index Plate 3: −
[21]
  Growth Index Avg: ++
  Growth Index Plate 1: ++
  Growth Index Plate 2: ++
  Growth Index Plate 3: ++
[22]
  Growth Index Avg: −
  Growth Index Plate 1: −
  Growth Index Plate 2: −
  Growth Index Plate 3: −
[23]
  Growth Index Avg: −
  Growth Index Plate 1: +
  Growth Index Plate 2: −
  Growth Index Plate 3: −
[24]
  Growth Index Avg: −
  Growth Index Plate 1: −
  Growth Index Plate 2: −
  Growth Index Plate 3: −
[25]
  Growth Index Avg: ++
  Growth Index Plate 1: ++
  Growth Index Plate 2: ++
  Growth Index Plate 3: +
[26]
  Growth Index Avg: −
  Growth Index Plate 1: −
  Growth Index Plate 2: −
  Growth Index Plate 3: −
[27]
  Growth Index Avg: +++
  Growth Index Plate 1: +++
  Growth Index Plate 2: +++
  Growth Index Plate 3: +++
[28]
  Growth Index Avg: +++
  Growth Index Plate 1: +++
  Growth Index Plate 2: +++
  Growth Index Plate 3: +++
[29]
  Growth Index Avg: +++
  Growth Index Plate 1: +++
  Growth Index Plate 2: +++
  Growth Index Plate 3: +++
[30]
  Growth Index Avg: +++
  Growth Index Plate 1: +++
  Growth Index Plate 2: +++
  Growth Index Plate 3: +++
In combination with 15-OHEPA
  growth of P. Acnes in combination with 15-OHEPA, compared with 15 OHEPA used alone: did not reduce the growth
In combination with DGLA
  growth of P. Acnes in combination with DGLA, compared with DGLA used alone: did not reduce the growth
